In ChEMBL document CHEMBL1144092, “5-Oxonoraporphines from Mitrephora cf. maingayi” (1999):
Values after ≈ are worked out from the molar mass of the structure shown. Active and inactive are the calls of the source. The calls are words filed in the database; no cut-off is given here.

What was measured:
Aedes aegypti = assay: Larvicidal activity against Aedes aegypti larvae; type: functional
P388 = assay: Cytotoxicity against mouse P388 cells; type: functional; conditions: P388, read-out: ED50

Structure (SMILES): COc1c2c3c(c(OC)c1OC)-c1ccccc1C[C@H]3NC(=O)C2
- Activity (Aedes aegypti): inactive
- EC50 (P388): > 30 µg/mL

Structure (SMILES): COc1c(O)c2c3c(c1OC)-c1ccccc1C[C@H]3NC(=O)C2
- Activity (Aedes aegypti): inactive
- EC50 (P388): > 30 µg/mL

Structure (SMILES): COc1c(OC)c(OC)c2c3c(cc4ccccc42)NC(=O)C(=O)c13 [OUREGIDIONE]
- LC50 (Aedes aegypti): 10000 µg/mL (≈ 29.6 mM)
